Measurements published in US11384055B2 (BIOMARIN PHARMACEUTICAL INC., priority 2017, dated 2022).

target: T1, Human GO (Homo sapiens, UniProt Q9UJM8); test: GO enzymatic assay (coupled fluorescence/HRP assay, glycolate substrate); assay type: biochemical; conditions: Table 2; read-out: Range (range of IC50 values calculated from the enzymatic assays)
T1 construct: purchased Novus Biologicals NBP1-72412
T1 sequence (Q9UJM8 1-370): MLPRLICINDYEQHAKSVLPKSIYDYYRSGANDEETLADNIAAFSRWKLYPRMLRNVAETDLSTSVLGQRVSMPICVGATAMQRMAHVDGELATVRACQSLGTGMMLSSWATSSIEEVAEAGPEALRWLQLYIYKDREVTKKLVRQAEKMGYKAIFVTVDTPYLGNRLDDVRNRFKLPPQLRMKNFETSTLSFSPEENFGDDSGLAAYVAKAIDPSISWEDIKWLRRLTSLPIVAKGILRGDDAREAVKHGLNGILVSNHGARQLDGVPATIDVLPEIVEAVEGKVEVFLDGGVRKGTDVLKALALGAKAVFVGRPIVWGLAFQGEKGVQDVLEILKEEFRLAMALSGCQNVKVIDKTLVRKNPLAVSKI
How it was run: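 Human GO incubated with glycolate substrate in 50 mM potassium phosphate, pH 7, with varying inhibitor concentrations. Activity read by coupled HRP fluorescence. IC50 taken from variable-slope sigmoidal dose-response fits of percent inhibition relative to DMSO control.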

Row | SMILES | IC50
1 | O=C(O)c1[nH]nnc1CSc1ccc2cc(Cl)ccc2c1 [Compound 171, 4-(((6-chloronaphthalen-2-yl)thio)methyl)-1H-1,2,3-triazole-5-carboxylic acid 2,2,2-trifluoroacetate] | < 100 nM
2 | O=C(O)c1[nH]nnc1SC1Cc2cc(F)c(F)cc2C1 [Compound 173, 4-((5,6-difluoro-2,3-dihydro-1H-inden-2-yl)thio)-1H-1,2,3-triazole-5-carboxylic acid] | < 100 nM
3 | O=C(O)c1[nH]nnc1SCc1ccc2cc(Cl)ccc2c1 [Compound 174, 4-(((6-chloronaphthalen-2-yl)methyl)thio)-1H-1,2,3-triazole-5-carboxylic acid 2,2,2-trifluoroacetate] | < 100 nM
4 | O=C(O)c1[nH]nnc1CNc1ccc2cc(Cl)ccc2c1 [Compound 178, 4-(((6-chloronaphthalen-2-yl)amino)methyl)-1H-1,2,3-triazole-5-carboxylic acid 2,2,2-trifluoroacetate] | < 100 nM
5 | CN(Cc1nn[nH]c1C(=O)O)c1ccc2cc(Cl)ccc2c1 [Compound 180, 4-(((6-chloronaphthalen-2-yl)(methyl)amino)methyl)-1H-1,2,3-triazole-5-carboxylic acid 2,2,2-trifluoroacetate] | < 100 nM
6 | CCN(Cc1nn[nH]c1C(=O)O)c1ccc(Cl)c(Cl)c1 [Compound 185, 4-(((3,4-dichlorophenyl)(ethyl)amino)methyl)-1H-1,2,3-triazole-5-carboxylic acid] | 100 to 1000 nM
7 | O=C(O)c1[nH]nnc1Nc1cnc2cc(Cl)ccc2c1 [Compound 186, 4-((7-chloroquinolin-3-yl)amino)-1H-1,2,3-triazole-5-carboxylic acid] | 1000 to 10000 nM
8 | CCN(Cc1nn[nH]c1C(=O)O)c1ccc2cc(Cl)ccc2c1 [Compound 187, 4-(((6-chloronaphthalen-2-yl)(ethyl)amino)methyl)-1H-1,2,3-triazole-5-carboxylic acid] | 100 to 1000 nM
9 | O=C(O)c1[nH]nnc1CN1CCCc2cc(Cl)ccc21 [Compound 188, 4-((6-chloro-3,4-dihydroquinolin-1(211)-yl)methyl)-1H-1,2,3-triazole-5-carboxylic acid] | 1000 to 10000 nM
10 | O=C(O)c1[nH]nnc1CN(Cc1ccccc1)c1ccc(C2CCCCC2)cc1 [Compound 194, 4-((benzyl(4-cyclohexylphenyl)amino)methyl)-1H-1,2,3-triazole-5-carboxylic acid] | 1000 to 10000 nM
11 | O=C(O)c1[nH]nnc1CN(Cc1ccc(OC(F)(F)F)cc1)c1ccc(Cl)cc1 [Compound 195, 4-(((4-chlorophenyl)(4-(trifluoromethoxy)benzyl)amino)methyl)-1H-1,2,3-triazole-5-carboxylic acid] | 100 to 1000 nM
12 | O=C(O)c1[nH]nnc1CN(Cc1ccccc1)c1ccc(-c2ccc(OC(F)(F)F)cc2)cc1 [Compound 196, 4-((benzyl(4′-(trifluoromethoxy)-[1,1′-biphenyl]-4-yl)amino)methyl)-1H-1,2,3-triazole-5-carboxylic acid 2,2,2-trifluoroacetate] | 100 to 1000 nM
13 | O=C(O)c1[nH]nnc1C(F)(F)c1ccc2cc(Cl)ccc2c1 [Compound 199, 4-((6-chloronaphthalen-2-yl)difluoromethyl)-1H-1,2,3-triazole-5-carboxylic acid] | < 100 nM
14 | O=C(O)c1[nH]nnc1C(F)(F)c1ccc(-c2ccc(Cl)cc2)cc1 [Compound 200, 4-((4′-chloro-[1,1′-biphenyl]-4-yl)difluoromethyl)-1H-1,2,3-triazole-5-carboxylic acid 2,2,2-trifluoroacetate] | < 100 nM
15 | O=C(O)c1[nH]nnc1C(F)(F)c1ccc(-c2ccc(Cl)c(Cl)c2)cc1 [Compound 201, 4-((3′,4′-dichloro-[1,1′-biphenyl]-4-yl)difluoromethyl)-1H-1,2,3-triazole-5-carboxylic acid 2,2,2-trifluoroacetate] | < 100 nM
16 | CC(C)N1CCCc2cc(-c3nn[nH]c3C(=O)O)ccc21 [Compound 206, 4-(1-isopropyl-1,2,3,4-tetrahydroquinolin-6-yl)-1H-1,2,3-triazole-5-carboxylic acid 2,2,2-trifluoroacetate] | 1000 to 10000 nM
17 | O=C(O)c1[nH]nnc1-c1ccc(Cl)cn1 [Compound 208, 4-(5-chloropyridin-2-yl)-1H-1,2,3-triazole-5-carboxylic acid 2,2,2-trifluoroacetate] | 100 to 1000 nM
18 | O=C(O)c1[nH]nnc1-c1cc2ccc(F)cc2cn1 [Compound 210, 4-(7-fluoroisoquinolin-3-yl)-1H-1,2,3-triazole-5-carboxylic acid 2,2,2-trifluoroacetate] | 100 to 1000 nM
19 | O=C(O)c1[nH]nnc1-c1ccc2c(n1)CCCC2 [Compound 212, 4-(5,6,7,8-tetrahydroquinolin-2-yl)-1H-1,2,3-triazole-5-carboxylic acid] | 1000 to 10000 nM

The remaining lines, values ahead:

Row | IC50 | SMILES
20 | < 100 nM | O=C(O)c1[nH]nnc1Sc1ccc(-c2cccc(OCC3CC3)c2)cc1 [Compound 170, 4-((3′-(cyclopropylmethoxy)-[1,1′-biphenyl]-4-yl)thio)-1H-1,2,3-triazole-5-carboxylic acid 2,2,2-trifluoroacetate]
21 | < 100 nM | O=C(O)c1[nH]nnc1SC1CCc2cc(F)c(F)cc2C1 (centres unmarked) [Compound 172, 4-((6,7-difluoro-1,2,3,4-tetrahydronaphthalen-2-yl)thio)-1H-1,2,3-triazole-5-carboxylic acid]
22 | < 100 nM | CN1CCCc2cc(-c3ccc(Sc4nn[nH]c4C(=O)O)cc3)ccc21 [Compound 175, 4-((4-(1-methyl-1,2,3,4-tetrahydroquinolin-6-yl)phenyl)thio)-1H-1,2,3-triazole-5-carboxylic acid 2,2,2-trifluoroacetate]
23 | < 100 nM | O=C(O)c1[nH]nnc1SCc1ccc(Cl)c(Cl)c1 [Compound 176, 4-((3,4-dichlorobenzyl)thio)-1H-1,2,3-triazole-5-carboxylic acid]
24 | < 100 nM | O=C(O)c1[nH]nnc1SCc1ccc(-c2ccc(OC(F)(F)F)cc2)cc1 [Compound 177]
25 | < 100 nM | CN(Cc1nn[nH]c1C(=O)O)c1ccc(Cl)c(Cl)c1 [Compound 179, 4-(((3,4-dichlorophenyl)(methyl)amino)methyl)-1H-1,2,3-triazole-5-carboxylic acid 2,2,2-trifluoroacetate]
26 | < 100 nM | O=C(O)c1[nH]nnc1Nc1ccc(-c2ccc(Cl)cc2)c(Cl)c1 [Compound 181, 4-((2,4′-dichloro-[1,1′-biphenyl]-4-yl)amino)-1H-1,2,3-triazole-5-carboxylic acid]
27 | 100 to 1000 nM | O=C(O)c1[nH]nnc1NCc1ccc2cc(Cl)ccc2c1 [Compound 182, 4-(((6-chloronaphthalen-2-yl)methyl)amino)-1H-1,2,3-triazole-5-carboxylic acid]
28 | < 100 nM | O=C(O)c1[nH]nnc1Nc1ccc(-c2ccc(C(F)(F)F)cc2)cc1 [Compound 183, 4-((4′-(trifluoromethyl)-[1,1′-biphenyl]-4-yl)amino)-1H-1,2,3-triazole-5-carboxylic acid]
29 | 100 to 1000 nM | CCN(Cc1nn[nH]c1C(=O)O)c1ccc(-c2ccc(OC(F)(F)F)cc2)cc1 [Compound 189, 4-((ethyl(4′-(trifluoromethoxy)-[1,1′-biphenyl]-4-yl)amino)methyl)-1H-1,2,3-triazole-5-carboxylic acid 2,2,2-trifluoroacetate]
30 | 100 to 1000 nM | O=C(O)c1[nH]nnc1NC1Cc2cc(Cl)c(Cl)cc2C1 [Compound 190, 4-((5,6-dichloro-2,3-dihydro-1H-inden-2-yl)amino)-1H-1,2,3-triazole-5-carboxylic acid 2,2,2-trifluoroacetate]
31 | < 100 nM | O=C(O)c1[nH]nnc1C(F)(F)c1ccc(-c2ccc(Cl)cc2)c(Cl)c1 [Compound 197, 4-((2,4′-dichloro-[1,1′-biphenyl]-4-yl)difluoromethyl)-1H-1,2,3-triazole-5-carboxylic acid 2,2,2-trifluoroacetate]
32 | < 100 nM | O=C(O)c1[nH]nnc1C(F)(F)c1ccc(-c2ccc(OC(F)(F)F)cc2)cc1 [Compound 198, 4-(difluoro(4′-(trifluoromethoxy)-[1,1′-biphenyl]-4-yl)methyl)-1H-1,2,3-triazole-5-carboxylic acid 2,2,2-trifluoroacetate]
33 | < 100 nM | O=C(O)c1[nH]nnc1-c1ccc(-c2ccc(Cl)cc2)c(OC(F)(F)F)c1 [Compound 203, 4-(4′-chloro-2-(trifluoromethoxy)-[1,1′-biphenyl]-4-yl)-1H-1,2,3-triazole-5-carboxylic acid]
34 | 1000 to 10000 nM | CC(C)C(=O)OCOC(=O)c1[nH]nnc1-c1ccc2cc(Cl)ccc2n1 [Compound 204, (isobutyryloxy)methyl 4-(6-chloroquinolin-2-yl)-1H-1,2,3-triazole-5-carboxylate]
35 | 100 to 1000 nM | O=C(O)c1[nH]nnc1-c1cc(Cl)c(Cl)cn1 [Compound 207, 4-(4,5-dichloropyridin-2-yl)-1H-1,2,3-triazole-5-carboxylic acid]
36 | 1000 to 10000 nM | CC(=O)NCCOc1ccc(-c2nn[nH]c2C(=O)O)cc1 [Compound 209, 4-(4-(2-acetamidoethoxy)phenyl)-1H-1,2,3-triazole-5-carboxylic acid]
37 | 1000 to 10000 nM | O=C(O)c1[nH]nnc1-c1cc2cc(OC(F)(F)F)ccc2cn1 [Compound 211, 4-(6-(trifluoromethoxy)isoquinolin-3-yl)-1H-1,2,3-triazole-carboxylic acid]
38 | 1000 to 10000 nM | O=C(O)c1[nH]nnc1-c1cc2cc(F)ccc2cn1 [Compound 213, 4-(6-fluoroisoquinolin-3-yl)-1H-1,2,3-triazole-5-carboxylic acid 2,2,2-trifluoroacetate]
